Experimental data reported in patent US20250327074A1 (SHAOXING INSTITUTE, ZHEJIANG UNIVERSITY, priority 2024, published 2025).

Assays:
Type in all cases: cell-based
[1] = test system: rare codon in EGFP reporter, HEK293T cells; assay: LC-MS recoding efficiency of rare codons in EGFP reporter; conditions: TetRS/PylTyyy, 200 μM TetBu, HEK293T
Protocol: (§1) The recoding translation system and the rare codon-bearing POI were co-transfected into HEK293T cells. Then, two methods were used to calculate the ncAA recoding rate: 1) LC-MS analysis: the protein of the POI mixture, including the fraction incorporated with ncAA and the fraction with NAA at rare codons, was purified by Ni2+-NTA beads and subjected to LC-MS analysis. The ncAA recoding rate was determined by the intensity of two fractions quantified by LC-MS. 2) TCO-PEG5000 mass tag labeling analysis: this method was suitable for quantifying the TetBu recoding rate in this work. When the protein mixture was incubated with TCO-PEG5000 mass tag, the protein incorporated with TetBu would be labeled by this mass tag and migrated much slower in SDS-PAGE.
(§2) When the recoding system (TetRS/PylTyyy) is co-expressed with a target protein carrying the recoding codon in HEK293T, the recoding codon can be translated into a natural amino acid by endogenous tRNA (Dec-tRNA), or recoding into TetBu by the engineered tRNA (Rec-tRNA), producing a mixture of protein byproducts (with a single-site mutation) and the target protein containing TetBu. Based on this, two methods were established to assess sense codon recoding efficiency: a) Liquid chromatography-mass spectrometry (LC-MS) for differentiates proteins based on molecular weight differences, and b) TCO-PEG5000 macromolecular label target proteins containing TetBu, which increases their molecular weight by 5 kDa. The shift in protein bands is detected via immunoblotting (FIG. 2).
(1) Transfection: Plasmids encoding the TetBu/PylTyyy recoding system (where xxx represents different codons and yyy represents different anticodons) were co-transfected with the plasmid mCherry-T2A-EGFP^N149XXX-6×His at a 1:1 (g:g) ratio. For a 10 cm dish, the total transfection mixture contained 20 μg DNA+[…] Lipofectamine 2000+2 mL Opti-MEM.
(2) Protein expression and purification: After 6 hours, the medium was replaced with fresh DMEM containing 200 μM TetBu for 40 hours to induce protein expression. Cells were lysed in 1 mL Modified RIPA Buffer, and the supernatant was purified using Ni-NTA beads.
(3) LC-MS analysis of recoding efficiency:Using a Waters Xevo G2-XS TOF Mass Spectrometer, the recoding efficiency of rare codons (CTA, GTA, CGT, CCG, GCG, ACG, and TCG) at the EGFP149 site was evaluated.
(2) Cell transfection and protein expression purification: HEK293T cells were seeded in 10 cm culture dishes and transfected at 60-70% confluency. For each transfection, […] of plasmid carrying mCherry-T2A-EGFPY151TCG-6×His was co-transfected with one of the following recoding system plasmids: chPhe_AcFRS/12×(U6-chPheTCGA), EcTyr_OmeYRS/12×(U6-EcTyrTCGA), or EcLeu_OmeYRS/12×(U6-EcLeuTCGA). After 6 hours, the medium was replaced with serine/glycine-free DMEM/F12 containing 500 μM of the respective unnatural amino acid. Following protein expression and purification, LC-MS was used to determine TCG recoding efficiency at position 151 of EGFP. Detailed transfection and purification protocols following section 2.2.1.2, with cell culture conditions in serine-free medium as described in Example 2.

[2] = test system: IL-1B, IL-2, IL-4, IL-6 bearing TCG codon, HEK293T cells; assay: TCO-PEG5000 mass tag labeling recoding efficiency in interleukin proteins; conditions: TetRS/PylTCGA, 200 μM TetBu, serine/glycine-free
Protocol: as §1, §2
The recoding system and plasmids containing the TCG codon for the cytokines were co-transfected into HEK293T cells. Six hours post-transfection, the medium was replaced with serine/glycine-free DMEM/F12 medium supplemented with 200 μM TetBu. After 40 hours of protein expression, 500 μL of Modified RIPA lysis buffer was added to each well to lyse the cells. The TCO-PEG5000 labeling method was used to assess the recoding efficiency.

HEK293T cells proteome = assay: Proteome background incorporation, TCO-biotin streptavidin dot blot; conditions: CTA and TCG codon groups among 7 rare codons; 200 μM TetBu
Text: When the TetRS/PylTyyy recoding system is expressed in HEK293T, it recodes endogenous genomic codons into TetBu, generating a modified proteome containing TetBu. The IEDDA reaction between TetBu and trans-cyclooctene (TCO) enables biotinylation of TetBu-containing proteins via TCO-Biotin. Streptavidin dot blot detects biotin signals, where signal intensity correlates with TetBu incorporation levels (FIG. 3, right).
1.3.2 Screening of Rare Codons with Low Background Incorporation • (1) Intracellular expression of the recoding system: Plasmids encoding TetBu/PylTyyy (yyy=anticodons for TCG, ACG, GCG, CCG, CGT, GTA, CTA) were transfected using Lipofectamine 2000. After 6 hours, cells were treated with fresh DMEM±200 μM TetBu for 40 hours. Cells were lysed in 100 μL Modified RIPA Buffer to obtain whole-cell lysates.
The reaction system was prepared as described in Table 3. Reaction products were mixed with 7 μL bromophenol blue-free 4×SDS loading buffer, boiled at 100° C. for 10 min, and analyzed via streptavidin dot blot.
Samples were spotted onto a nitrocellulose membrane and air-dried at room temperature for 15 min. The membrane was washed with 10 mL TBST (80 rpm, 5 min) three times, discarding the supernatant each time. Blocking was performed with 10 mL TBST containing 5% non-fat milk for 1 h, followed by three additional TBST washes (10 mL, 80 rpm, 5 min each). […]

[3] = test system: Ser-tRNACGA knockout HEK293T cell lines 1A8, 2A3, 3A12, 4C23; assay: LC-MS TCG recoding efficiency in Ser-tRNACGA knockout cell lines; conditions: for efficiency in recoding TCG codon at position 151 of EGFP: single-copy recoding tRNA
Text: Four sgRNAs targeting Ser-tRNACGA were designed (Table 6). CRISPR/Cas9 was used to generate knockout polyclonal populations, followed by FACS sorting to isolate monoclonal lines. Sequencing confirmed successful editing in four knockout strains: 1A8, 2A3, 3A12, and 4C23 (FIG. 6).
This example evaluates the TCG codon recoding capability of the knockout cell lines using the TetRS/PylTCGA recoding system as a model.

**Q.** Which results are given for `CCCCc1nnc(-c2cccc(C[C@H](N)C(=O)O)c2)nn1` [TetBu, (S)-2-amino-3-(3-(6-butyl-1,2,4,5-tetrazin-3-yl)phenyl)propanoic acid]?
**A.** recoding efficiency ([1]; ACG codon at EGFP149 site): 7.1%; recoding efficiency ([1]; TCG codon at EGFP149 site): 8.5%; TetBu recoding efficiency ([2]; position 62 of IL-2): 80.8%; TetBu recoding efficiency ([2]; position 87 of IL-6): 83.9%; TetBu recoding efficiency ([2]; position 121 of IL-4): 99.3%; TetBu recoding efficiency ([2]; position 205 of IL-1B): 78.10%; proteome-wide background TetBu incorporation (biotin signal intensity) (HEK293T cells proteome): lowest biotin signal intensity; efficiency in recoding TCG codon at position 151 of EGFP ([3]; knockout cell line 1A8): 61%; efficiency in recoding TCG codon at position 151 of EGFP ([3]; knockout cell line 2A3): 51%; efficiency in recoding TCG codon at position 151 of EGFP ([3]; knockout cell line 3A12): 58%; efficiency in recoding TCG codon at position 151 of EGFP ([3]; knockout cell line 4C23): 68%; improvement of TCG recoding compared to HEK293T cells ([3]; strain 4C23): 1.4 fold
